Where “and” joins values, the source holds several entries; their conditions need not be identical. Identical values can stand only once.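 Step 1: Grow cells in 96-well plates. Step 2: Expose to compound for 48 hours at 5 concentrations. Step 3: Interpolate endpoints linearly; if unreached, use highest concentration. At the GI50, growth is halved. At the TGI there is no net growth.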
Legend:
Assay in all cases: inhibition of tumour cell growth, NCI panel, 48 h
SF-539 CNS = system: SF-539 CNS
CCRF-CEM leukemia = system: CCRF-CEM leukemia
OVCAR-5 ovarian = system: OVCAR-5 ovarian
786-0 renal = system: 786-0 renal
RPMI-8226 leukemia = system: RPMI-8226 leukemia
NCI-H23 lung = system: NCI-H23 lung
NCI-H522 lung = system: NCI-H522 lung
SN12C renal = system: SN12C renal
HCT-15 colon = system: HCT-15 colon
A498 renal = system: A498 renal

Compound | TGI (SF-539 CNS) | TGI (CCRF-CEM leukemia) | TGI (OVCAR-5 ovarian) | TGI (786-0 renal) | TGI (RPMI-8226 leukemia) | TGI (NCI-H23 lung) | TGI (NCI-H522 lung) | TGI (SN12C renal) | TGI (HCT-15 colon) | GI50 (CCRF-CEM leukemia) | GI50 (OVCAR-5 ovarian) | GI50 (786-0 renal) | GI50 (NCI-H23 lung) | GI50 (NCI-H522 lung) | GI50 (SN12C renal) | GI50 (HCT-15 colon) | GI50 (A498 renal) | TGI (A498 renal) | GI50 (SF-539 CNS) | GI50 (RPMI-8226 leukemia)
Nc1nc(N)c(N=O)c(Nc2ccc(I)cc2)n1 | 70.4 µM | 89.9 µM | 61 µM | > 100 µM | > 100 µM | 82.5 µM | 29.9 µM | 49.2 µM | 96.7 µM | – | – | – | – | – | – | – | – | – | – | –
O=C(O)C[O][Sb][O]CC(=O)O | – | > 100 µM | > 100 µM | > 100 µM | – | > 100 µM | > 100 µM | > 100 µM | > 100 µM | > 100 µM | > 100 µM | > 100 µM | > 100 µM | > 100 µM | > 100 µM | > 100 µM | > 100 µM | > 100 µM | – | –
CC(C)(C)OC(=O)NC1CCC[C@H]1O (stereo partly specified) | > 100 µM | > 100 µM | > 100 µM | > 100 µM | – | > 100 µM | > 100 µM | > 100 µM | – | – | – | – | – | – | – | – | – | > 100 µM | – | –
CC(=O)OC1C/C(C)=C/CCC(C)/C=C/C2(C)CCC(C(C)(C)O)C12 (stereo unspecified) | > 100 µM | > 100 µM | > 100 µM | > 100 µM | 71.7 µM | > 100 µM | – | 96.4 µM | > 100 µM | – | – | – | – | – | – | – | – | > 100 µM | – | –
NC(CSc1nc2ccccn2c1[N+](=O)[O-])C(=O)O (stereo unspecified) | > 100 µM | – | > 100 µM | > 100 µM | > 100 µM | > 100 µM | > 100 µM | > 100 µM | > 100 µM | – | – | – | – | – | – | – | – | > 100 µM | – | –
Nc1ncnc2c(C3OC(CO)C(O)C3O)scc12 (stereo unspecified) | – | 4.88 µM and 1.56 µM | 0.787 µM and 0.139 µM | 4.5 µM and 3.08 µM | – | 1.33 µM and 1.39 µM | 0.242 µM and 0.0939 µM | 4.93 µM and 4.07 µM | 0.584 µM and 0.14 µM | – | – | 0.168 µM | 0.0585 µM | – | 0.105 µM | – | 0.0518 µM | 0.324 µM and 2.03 µM | – | –
COc1ccc2[nH]c(=O)c(/C=C/C(=O)/C=C/c3ccc(O)c(OC)c3)cc2c1 | 3.21 µM | > 100 µM | 3.66 µM | 3.17 µM | 1.65 µM | 4.88 µM | 3.87 µM | 4.49 µM | 3.81 µM | 2.06 µM | 1.88 µM | 1.59 µM | 2.04 µM | 1.74 µM | 1.89 µM | 1.41 µM | – | – | 1.58 µM | 0.359 µM
CCCCCCCCCC1C(C)c2c([nH]c3ccccc23)C2C(=O)N(c3ccccc3)C(=O)C21 (stereo unspecified) | 40.6 µM | 8.05 µM | 31.5 µM | 25.1 µM | – | 13.6 µM | – | – | 23 µM | – | – | – | – | – | – | – | – | 33.8 µM | – | –
COc1c(NC(=O)CC(C)=O)[c]([Hg][O]C(C)=O)c(OC)c(Cl)[c]1[Hg][O]C(C)=O | 9.7 µM | 28.5 µM | 40.4 µM | 18.8 µM | 63.5 µM | 27.6 µM | 7.04 µM | 29.8 µM | 28.8 µM | 4.8 µM | 25.7 µM | 6.47 µM | 11.8 µM | 2.07 µM | 15.4 µM | 14 µM | – | – | 2.72 µM | 17.5 µM
